Values of other authors as cited in article PMC8542980, “The Scavenger Function of Liver Sinusoidal Endothelial Cells in Health and Disease” (Frontiers in Physiology, 2021).
Read-outs that look alike come from different tables or passages of the source. One block for each molecule: values may come before it.

Legend:
[1] = system: LSECs
[2] = system: endocytic hyaluronan receptor
[3] = set-up: method as in Fraser et al., 1981; conditions: rabbit, ref Fraser et al., 1981
[4] = set-up: method as in Fraser et al., 1984; conditions: human, ref Fraser et al., 1984
[5] = ref Smedsrød et al., 1984, Laurent et al., 1986b
[6] = rats, whole body autoradiography 10 min after injection, ref Fraser et al., 1985
[7] = rat, 1 μg, tail vein, ref Smedsrød and Einarsson, 1990

Molecule: C[C@@H]1C[C@@H]([C@H](O)CC2CC(=O)NC(=O)C2)C(=O)[C@@H](C)C1 [cycloheximide]
effect on the endocytosis of hyaluronan by cultured LSECs ([1]; inhibitor of protein synthesis, ref McGary et al., 1989): no effect

affinity of the rat receptor [2, 5]: no affinity
Molecule: heparin [listing 1 of 2 here]

inhibition of the uptake and binding of hyaluronan by LSECs ([2]; ref Smedsrød et al., 1984): can inhibit | affinity of the rat receptor compared with hyaluronan of the same chain length [2, 5]: threefold greater affinity
Molecule: chondroitin sulfate

Molecule: hyaluronan
uptake in liver (rat, at 30 min after injection, ref Dahl et al., 1988): 79% | Decay of plasma/blood radioactivity, t1/2α (rat, tail vein, MW = 2.5 × 10^5, ref Dahl et al., 1988): 0.9 min

Kd ([2]; endocytic hyaluronan receptor of LSECs, ref Laurent et al., 1986b, read-out: dissociation constant): 9 pM
Molecule: hyaluronan [hyaluronan of 6.4 × 10^6 Da]

Molecule: hyaluronan [[^3H]-hyaluronan]
time to appearance of degradation products in the supernatant ([1]; LSEC cultures, 37°C, after addition of ligand, ref Smedsrød et al. (1984)): ≤ 30 min | time to steady state levels of internalized ligand and degradation products ([1]; LSEC cultures, 37°C, into the incubation, ref Smedsrød et al. (1984)): 60 to 75 min | injected radioactivity found in Kupffer cells [6]: none | injected radioactivity found in the cytoplasm of LSECs [6]: approximately 90% | Decay of plasma/blood radioactivity, t1/2 ([3]; 30–32 μg, marginal ear vein): 2.5 to 4.5 min | uptake in liver ([3]; at 19 min after injection): 88% | Decay of plasma/blood radioactivity, t1/2 ([4]; 60–130 μg, cubital vein): 2.6 to 5.5 min | eliminated from blood ([4]; after 10 min): 90%

Molecule: ^125I-tPA: 125I-labeled tissue plasminogen activator
% eliminated with t1/2α [7]: 65% | % eliminated with t1/2β [7]: 35% | Decay of plasma/blood radioactivity, t1/2α [7]: 0.6 min | Decay of plasma/blood radioactivity, t1/2β [7]: 6.4 min

Molecule: chondroitin sulfate [[^3H]-chondroitin sulfate (CS)]
site of main uptake (rat, clearance rate not examined, ref Smedsrød et al., 1985b): Clearance rate not examined but the main uptake was in LSECs

inhibition of the binding of hyaluronan by LSECs ([2]; ref Raja et al., 1988, McGary et al., 1989): can also inhibit
Molecule: Dextran sulfate

Molecule: heparin [listing 2 of 2 here]
Decay of plasma/blood radioactivity, t1/2 (rat, 0.1 IU/kg, tail vein, ref Øie et al., 2008): 1.71 min | recovered in liver (rat, after 15 min, ref Øie et al., 2008): 71%

affinity of the rat receptor [2, 5]: no affinity
Molecule: heparan sulfate

B1: ^125I-TC-nidogen: nidogen labeled with 125I-tyramine cellobiose (protein, UniProt P14543 29-1247, looked up)
Nidogen-1: LSRQELFPFGPGQGDLELEDGDDFVSPALELSGALRFYDRSDIDAVYVTTNGIIATSEPPAKESHPGLFPPTFGAVAPFLADLDTTDGLGKVYYREDLSPSITQRAAECVHRGFPEISFQPSSAVVVTWESVAPYQGPSRDPDQKGKRNTFQAVLASSDSSSYAIFLYPEDGLQFHTTFSKKENNQVPAVVAFSQGSVGFLWKSNGAYNIFANDRESVENLAKSSNSGQQGVWVFEIGSPATTNGVVPADVILGTEDGAEYDDEDEDYDLATTRLGLEDVGTTPFSYKALRRGGADTYSVPSVLSPRRAATERPLGPPTERTRSFQLAVETFHQQHPQVIDVDEVEETGVVFSYNTDSRQTCANNRHQCSVHAECRDYATGFCCSCVAGYTGNGRQCVAEGSPQRVNGKVKGRIFVGSSQVPIVFENTDLHSYVVMNHGRSYTAISTIPETVGYSLLPLAPVGGIIGWMFAVEQDGFKNGFSITGGEFTRQAEVTFVGHPGNLVIKQRFSGIDEHGHLTIDTELEGRVPQIPFGSSVHIEPYTELYHYSTSVITSSSTREYTVTEPERDGASPSRIYTYQWRQTITFQECVHDDSRPALPSTQQLSVDSVFVLYNQEEKILRYALSNSIGPVREGSPDALQNPCYIGTHGCDTNAACRPGPRTQFTCECSIGFRGDGRTCYDIDECSEQPSVCGSHTICNNHPGTFRCECVEGYQFSDEGTCVAVVDQRPINYCETGLHNCDIPQRAQCIYTGGSSYTCSCLPGFSGDGQACQDVDECQPSRCHPDAFCYNTPGSFTCQCKPGYQGDGFRCVPGEVEKTRCQHEREHILGAAGATDPQRPIPPGLFVPECDAHGHYAPTQCHGSTGYCWCVDRDGREVEGTRTRPGMTPPCLSTVAPPIHQGPAVPTAVIPLPPGTHLLFAQTGKIERLPLEGNTMRKTEAKAFLHVPAKVIIGLAFDCVDKMVYWTDITEPSIGRASLHGGEPTTIIRQDLGSPEGIAVDHLGRNIFWTDSNLDRIEVAKLDGTQRRVLFETDLVNPRGIVTDSVRGNLYWTDWNRDNPKIETSYMDGTNRRILVQDDLGLPNGLTFDAFSSQLCWVDAGTNRAECLNPSQPSRRKALEGLQYPFAVTSYGKNLYFTDWKMNSVVALDLAISKETDAFQPHKQTRLYGITTALSQCPQGHNYCSVNNGGCTHLCLATPGSRTCRCPDNTLGVDCIEQK
modifications: 125I-tyramine cellobiose label
notes: nidogen labeled with 125I-tyramine cellobiose
recovered in liver (rat, after 1 h, ref Smedsrød et al., 1989): 78% | Decay of plasma/blood radioactivity, t1/2 (rat, trace amounts, tail vein, ref Smedsrød et al., 1989): 2 to 3 min
